In patent publication US8952024B2, “Herbicidal pyrimidone derivatives” (E I du Pont de Nemours and Company, priority 2009, dated 2015):

What was measured:
Format in all cases: in vivo
[1] = test system: umbrella sedge (Cyperus difformis); assay: Test B flooded paddy test; conditions: for Plant response rating, Flood, Sedge, Umbrella: 250 g ai/ha, flooded paddy test, visual rating on 0 to 100 scale (0 no effect, 100 complete control) after 13 to 15 days; for Plant response rating, Sedge, Umbrella: Flood (flooded paddy test), 13 to 15 days; for Sedge, Umbrella plant response rating: Flood, 31 g ai/ha, scale 0 to 100 (0 no effect, 100 complete control)
Outline: (§1)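 Ratings are visual, 0–100 (100 = complete control), taken versus untreated controls 13 to 15 days after treatment in the greenhouse. Compound went straight into paddy water held 3 cm above soil, applied to 2-leaf-stage plants of four species.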

[2] = test system: ducksalad (Heteranthera limosa); assay: Test B flooded paddy test; conditions: for Plant response rating, Flood, Ducksalad: 250 g ai/ha, flooded paddy test, visual rating on 0 to 100 scale (0 no effect, 100 complete control) after 13 to 15 days; for Plant response rating, Ducksalad: Flood (flooded paddy test), 13 to 15 days; for Ducksalad plant response rating: Flood, 31 g ai/ha, scale 0 to 100 (0 no effect, 100 complete control)
Outline: as §1

[3] = test system: barnyardgrass (Echinochloa crus-galli); assay: Test B flooded paddy test; conditions: for Plant response rating, Flood, Barnyardgrass: 250 g ai/ha, flooded paddy test, visual rating on 0 to 100 scale (0 no effect, 100 complete control) after 13 to 15 days; for Plant response rating, Barnyardgrass: Flood (flooded paddy test), 13 to 15 days; for Barnyardgrass plant response rating: Flood, 31 g ai/ha, scale 0 to 100 (0 no effect, 100 complete control)
Outline: as §1

rice (Oryza sativa) = assay: Test B flooded paddy test; conditions: for Plant response rating, Flood, Rice: 250 g ai/ha, flooded paddy test, visual rating on 0 to 100 scale (0 no effect, 100 complete control) after 13 to 15 days; for Plant response rating, Rice: Flood (flooded paddy test), 13 to 15 days; for Rice plant response rating: Flood, 31 g ai/ha, scale 0 to 100 (0 no effect, 100 complete control)
Outline: as §1

[4] = test system: morningglory (Ipomoea coccinea); assay: Test B pre-/postemergence plant response; conditions: Postemergence
Outline: (§2)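 Each species received compound formulated in non-phytotoxic solvent with surfactant, either at planting into a loam and sand blend or as a foliar spray once plants reached 2 to 18 cm in peat-based medium. Plants stayed in the greenhouse 13 to 15 days before visual evaluation against controls, scored 0 (no effect) to 100 (complete control).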

[5] = test system: blackgrass (Alopecurus myosuroides); assay: Test B pre-/postemergence plant response; conditions: Postemergence
Outline: as §2

soybean (Glycine max) = assay: Test B pre-/postemergence plant response; conditions: Postemergence
Outline: as §2

[6] = test system: cocklebur (Xanthium strumarium); assay: Test B pre-/postemergence plant response; conditions: Postemergence
Outline: as §2

corn (Zea mays) = assay: Test B pre-/postemergence plant response; conditions: Postemergence
Outline: as §2

[7] = test system: Surinam grass (Brachiaria decumbens); assay: Test B pre-/postemergence plant response; conditions: Postemergence
Outline: as §2

[8] = test system: bermudagrass (Cynodon dactylon); assay: Test B pre-/postemergence plant response; conditions: Postemergence
Outline: as §2

[9] = test system: ragweed (common ragweed, Ambrosia elatior); assay: Test B pre-/postemergence plant response; conditions: Postemergence
Outline: as §2

[10] = test system: Italian ryegrass (Lolium multiflorum); assay: Test B pre-/postemergence plant response; conditions: Postemergence
Outline: as §2

[11] = 62 g ai/ha, scale of 0 to 100 where 0 is no effect and 100 is complete control
[12] = 125 g ai/ha, scale 0 to 100, 0 is no effect, 100 is complete control
[13] = 31 g ai/ha, 0 to 100 scale (0 no effect, 100 complete control)
[14] = 62 g ai/ha, scale 0 to 100 (0 no effect, 100 complete control)
[15] = 125 g ai/ha, scale 0 to 100 (0 no effect, 100 complete control)
[16] = 250 g ai/ha, scale 0 to 100 (0 no effect, 100 complete control), 13 to 15 days

SMILES: CCCn1c(-c2ccsc2)ncc(C(=O)C2=C(O)C3CCC(C3)C2=O)c1=O (stereo not shown) [Compound 227]
- Plant response rating, Flood, Sedge, Umbrella [1]: 85
- Plant response rating, Sedge, Umbrella [1, 11]: 85
- Plant response rating, Sedge, Umbrella [1, 12]: 85
- Sedge, Umbrella plant response rating [1]: 80
- Plant response rating, Flood, Ducksalad [2]: 80
- Plant response rating, Ducksalad [2, 12]: 75
- Plant response rating, Flood, Barnyardgrass [3]: 60
- Plant response rating, Barnyardgrass [3, 11]: 40
- Plant response rating, Barnyardgrass [3, 12]: 50
- Barnyardgrass plant response rating [3]: 20
- Plant response rating, Flood, Rice (rice (Oryza sativa)): 55
- Plant response rating, Rice (rice (Oryza sativa); [11]): 30
- Plant response rating, Rice (rice (Oryza sativa); [12]): 45
- Rice plant response rating (rice (Oryza sativa)): 20
- Plant response rating, Morningglory [4, 13]: 100
- Plant response rating, Morningglory [4, 14]: 100
- Plant response rating, Morningglory [4, 15]: 100
- Plant response rating, Morningglory [4, 16]: 100
- Plant response rating, Blackgrass [5, 13]: 0
- Plant response rating, Blackgrass [5, 14]: 0
- Plant response rating, Blackgrass [5, 15]: 5
- Plant response rating, Blackgrass [5, 16]: 20
- Plant response rating, Soybean (soybean (Glycine max); [13]): 55
- Plant response rating, Soybean (soybean (Glycine max); [14]): 65
- Plant response rating, Soybean (soybean (Glycine max); [16]): 98
- Plant response rating, Cocklebur [6, 13]: 75
- Plant response rating, Cocklebur [6, 14]: 80
- Plant response rating, Cocklebur [6, 15]: 95
- Plant response rating, Cocklebur [6, 16]: 95
- Plant response rating, Corn (corn (Zea mays); [13]): 20
- Plant response rating, Corn (corn (Zea mays); [14]): 75
- Plant response rating, Corn (corn (Zea mays); [15]): 75
- Plant response rating, Corn (corn (Zea mays); [16]): 85
- Plant response rating, Surinam Grass [7, 13]: 55
- Plant response rating, Surinam Grass [7, 14]: 70
- Plant response rating, Surinam Grass [7, 16]: 95
- Plant response rating, Bermudagrass [8, 13]: 75
- Plant response rating, Bermudagrass [8, 14]: 75
- Plant response rating, Bermudagrass [8, 15]: 85
- Plant response rating, Bermudagrass [8, 16]: 90
- Plant response rating, Ragweed [9, 13]: 60
- Plant response rating, Ragweed [9, 14]: 70
- Plant response rating, Ragweed [9, 16]: 85
- Plant response rating, Ryegrass, Italian [10, 13]: 0
- Plant response rating, Ryegrass, Italian [10, 14]: 0
- Plant response rating, Ryegrass, Italian [10, 16]: 10

SMILES: COCCn1c(-c2ccsc2)ncc(C(=O)C2=C(O)C3CCC(C3)C2=O)c1=O (stereo not shown) [Compound 228]
- Plant response rating, Flood, Sedge, Umbrella [1]: 85
- Plant response rating, Sedge, Umbrella [1, 11]: 75
- Plant response rating, Sedge, Umbrella [1, 12]: 75
- Sedge, Umbrella plant response rating [1]: 65
- Plant response rating, Flood, Ducksalad [2]: 80
- Plant response rating, Ducksalad [2, 11]: 50
- Plant response rating, Ducksalad [2, 12]: 75
- Ducksalad plant response rating [2]: 40
- Plant response rating, Flood, Barnyardgrass [3]: 80
- Plant response rating, Barnyardgrass [3, 11]: 40
- Plant response rating, Barnyardgrass [3, 12]: 75
- Barnyardgrass plant response rating [3]: 15
- Plant response rating, Flood, Rice (rice (Oryza sativa)): 60
- Plant response rating, Rice (rice (Oryza sativa); [11]): 20
- Plant response rating, Rice (rice (Oryza sativa); [12]): 35
- Rice plant response rating (rice (Oryza sativa)): 0
- Plant response rating, Morningglory [4, 13]: 100
- Plant response rating, Morningglory [4, 14]: 100
- Plant response rating, Morningglory [4, 15]: 100
- Plant response rating, Morningglory [4, 16]: 100
- Plant response rating, Blackgrass [5, 13]: 5
- Plant response rating, Blackgrass [5, 14]: 35
- Plant response rating, Blackgrass [5, 15]: 50
- Plant response rating, Blackgrass [5, 16]: 55
- Plant response rating, Soybean (soybean (Glycine max); [13]): 95
- Plant response rating, Soybean (soybean (Glycine max); [14]): 98
- Plant response rating, Soybean (soybean (Glycine max); [16]): 100
- Plant response rating, Cocklebur [6, 13]: 98
- Plant response rating, Cocklebur [6, 14]: 98
- Plant response rating, Cocklebur [6, 15]: 100
- Plant response rating, Cocklebur [6, 16]: 100
- Plant response rating, Corn (corn (Zea mays); [13]): 80
- Plant response rating, Corn (corn (Zea mays); [14]): 85
- Plant response rating, Corn (corn (Zea mays); [15]): 85
- Plant response rating, Corn (corn (Zea mays); [16]): 90
- Plant response rating, Surinam Grass [7, 13]: 75
- Plant response rating, Surinam Grass [7, 14]: 85
- Plant response rating, Surinam Grass [7, 16]: 98
- Plant response rating, Bermudagrass [8, 13]: 80
- Plant response rating, Bermudagrass [8, 14]: 85
- Plant response rating, Bermudagrass [8, 15]: 90
- Plant response rating, Bermudagrass [8, 16]: 95
- Plant response rating, Ragweed [9, 13]: 70
- Plant response rating, Ragweed [9, 14]: 80
- Plant response rating, Ragweed [9, 16]: 98
- Plant response rating, Ryegrass, Italian [10, 13]: 0
- Plant response rating, Ryegrass, Italian [10, 14]: 0
- Plant response rating, Ryegrass, Italian [10, 16]: 0

SMILES: O=C(C1=C(O)C2CCC(C2)C1=O)c1cnc(-c2ccsc2)n(CC2CCCO2)c1=O (stereo not shown) [Compound 229]
- Plant response rating, Flood, Sedge, Umbrella [1]: 70
- Plant response rating, Sedge, Umbrella [1, 11]: 0
- Plant response rating, Sedge, Umbrella [1, 12]: 50
- Sedge, Umbrella plant response rating [1]: 0
- Plant response rating, Flood, Ducksalad [2]: 40
- Plant response rating, Ducksalad [2, 11]: 0
- Plant response rating, Ducksalad [2, 12]: 0
- Ducksalad plant response rating [2]: 0
- Plant response rating, Flood, Barnyardgrass [3]: 30
- Plant response rating, Barnyardgrass [3, 11]: 0
- Plant response rating, Barnyardgrass [3, 12]: 0
- Barnyardgrass plant response rating [3]: 0
- Plant response rating, Flood, Rice (rice (Oryza sativa)): 20
- Plant response rating, Rice (rice (Oryza sativa); [11]): 0
- Plant response rating, Rice (rice (Oryza sativa); [12]): 0
- Rice plant response rating (rice (Oryza sativa)): 0
- Plant response rating, Morningglory [4, 13]: 98
- Plant response rating, Morningglory [4, 14]: 100
- Plant response rating, Morningglory [4, 15]: 100
- Plant response rating, Morningglory [4, 16]: 100
- Plant response rating, Blackgrass [5, 13]: 0
- Plant response rating, Blackgrass [5, 14]: 0
- Plant response rating, Blackgrass [5, 15]: 5
- Plant response rating, Blackgrass [5, 16]: 30
- Plant response rating, Soybean (soybean (Glycine max); [13]): 95
- Plant response rating, Soybean (soybean (Glycine max); [14]): 98
- Plant response rating, Soybean (soybean (Glycine max); [16]): 98
- Plant response rating, Cocklebur [6, 13]: 85
- Plant response rating, Cocklebur [6, 14]: 90
- Plant response rating, Cocklebur [6, 15]: 100
- Plant response rating, Cocklebur [6, 16]: 100
- Plant response rating, Corn (corn (Zea mays); [13]): 70
- Plant response rating, Corn (corn (Zea mays); [14]): 80
- Plant response rating, Corn (corn (Zea mays); [15]): 85
- Plant response rating, Corn (corn (Zea mays); [16]): 85
- Plant response rating, Surinam Grass [7, 13]: 65
- Plant response rating, Surinam Grass [7, 14]: 70
- Plant response rating, Surinam Grass [7, 16]: 90
- Plant response rating, Bermudagrass [8, 13]: 75
- Plant response rating, Bermudagrass [8, 14]: 80
- Plant response rating, Bermudagrass [8, 15]: 85
- Plant response rating, Bermudagrass [8, 16]: 90
- Plant response rating, Ragweed [9, 13]: 80
- Plant response rating, Ragweed [9, 14]: 80
- Plant response rating, Ragweed [9, 16]: 95
- Plant response rating, Ryegrass, Italian [10, 13]: 0
- Plant response rating, Ryegrass, Italian [10, 14]: 0
- Plant response rating, Ryegrass, Italian [10, 16]: 10
